# Assay results from ChEMBL document CHEMBL1128649, “CD45 protein tyrosine phosphatase: Determination of minimal peptide length for substrate recognition and synthesis of some tyrosine-based electrophiles as potential active-site directed irreversible inhibitors” (Bioorg Med Chem Lett, 1995).
# The source made the active and inactive calls. The calls are words filed in the database; no cut-off is given here. Non-standard residues stand in square brackets, D forms with d. Residues, ends and D or L forms follow the SMILES beside them. *: point of attachment. pY = N[C@@H](Cc1ccc(OP(=O)(O)O)cc1)C(=O)O; Cbz = O=C(OCc1ccccc1)*
# T1: Receptor-type tyrosine-protein phosphatase C (Homo sapiens) (UniProt P08575)
# T1 sequence (whole entry): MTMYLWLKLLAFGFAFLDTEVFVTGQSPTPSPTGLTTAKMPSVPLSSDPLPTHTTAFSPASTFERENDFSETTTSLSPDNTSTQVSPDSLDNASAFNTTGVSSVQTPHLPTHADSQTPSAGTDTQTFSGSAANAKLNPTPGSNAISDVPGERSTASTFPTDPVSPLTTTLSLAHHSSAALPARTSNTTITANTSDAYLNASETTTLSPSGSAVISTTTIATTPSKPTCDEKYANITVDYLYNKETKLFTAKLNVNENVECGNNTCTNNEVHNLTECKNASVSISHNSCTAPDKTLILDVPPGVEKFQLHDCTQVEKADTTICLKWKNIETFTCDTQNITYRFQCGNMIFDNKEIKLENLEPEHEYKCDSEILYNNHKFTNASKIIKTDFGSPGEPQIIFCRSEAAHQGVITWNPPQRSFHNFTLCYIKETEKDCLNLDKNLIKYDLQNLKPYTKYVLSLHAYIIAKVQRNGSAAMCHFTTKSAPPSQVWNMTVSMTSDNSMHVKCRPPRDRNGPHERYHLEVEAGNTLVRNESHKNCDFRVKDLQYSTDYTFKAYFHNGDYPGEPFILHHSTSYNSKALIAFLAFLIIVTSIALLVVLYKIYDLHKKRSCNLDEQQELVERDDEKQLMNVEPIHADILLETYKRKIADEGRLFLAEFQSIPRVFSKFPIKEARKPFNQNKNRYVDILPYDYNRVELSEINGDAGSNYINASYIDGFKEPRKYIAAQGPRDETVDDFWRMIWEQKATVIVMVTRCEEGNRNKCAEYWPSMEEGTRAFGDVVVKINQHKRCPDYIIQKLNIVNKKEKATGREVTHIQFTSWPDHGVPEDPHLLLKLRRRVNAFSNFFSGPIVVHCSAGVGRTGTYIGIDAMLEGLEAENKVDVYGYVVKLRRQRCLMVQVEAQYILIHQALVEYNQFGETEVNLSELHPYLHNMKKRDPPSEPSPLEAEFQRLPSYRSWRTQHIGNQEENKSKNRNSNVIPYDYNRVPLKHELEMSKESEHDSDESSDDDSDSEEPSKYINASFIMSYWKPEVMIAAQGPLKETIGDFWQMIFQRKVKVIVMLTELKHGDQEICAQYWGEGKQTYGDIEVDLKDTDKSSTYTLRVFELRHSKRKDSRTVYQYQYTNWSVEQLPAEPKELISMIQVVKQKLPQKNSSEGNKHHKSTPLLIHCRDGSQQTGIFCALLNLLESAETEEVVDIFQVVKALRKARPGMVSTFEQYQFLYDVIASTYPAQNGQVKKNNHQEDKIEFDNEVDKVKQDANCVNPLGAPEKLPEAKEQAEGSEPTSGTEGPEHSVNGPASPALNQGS
# Key:
# [1] = target: T1, Receptor-type tyrosine-protein phosphatase C (Homo sapiens); test: Compound was evaluated for inhibitory activity against CD45 protein tyrosine phosphatase at a concentration of 200 uM; no activity
# [2] = target: T1, Receptor-type tyrosine-protein phosphatase C (Homo sapiens); test: (§1) Kinetic constant for CD45 protein tyrosine phosphatase inhibition was evaluated using malachite green assay
# [3] = target: T1, Receptor-type tyrosine-protein phosphatase C (Homo sapiens); test: (§2) Kinetic constant for CD45 Protein-tyrosine phosphatase inhibition was evaluated using malachite green assay
# [4] = compound: CC(=O)N[C@@H](Cc1ccccc1)C(=O)N[C@H](C(=O)N[C@@H](C)C(=O)N[C@H](C(=O)N[C@@H](CCC(=O)O)C(=O)N1CCC[C@H]1C(=O)N[C@@H](CCC(N)=O)C(=O)N[C@@H](Cc1ccc(OP(=O)(O)O)cc1)C(=O)N[C@@H](CCC(N)=O)C(=O)N1CCC[C@H]1C(=O)NCC(=O)N[C@@H](CCC(N)=O)C(=O)N[C@@H](CC(N)=O)C(=O)N[C@@H](CC(C)C)C(N)=O)[C@@H](C)O)[C@@H](C)O; test: as §2
# [5] = compound: CC(=O)N1CCC[C@H]1C(=O)N[C@@H](CCC(N)=O)C(=O)N[C@@H](Cc1ccc(OP(=O)(O)O)cc1)C(=O)N[C@@H](CCC(N)=O)C(=O)N1CCC[C@@H]1C(N)=O; test: as §1
# [6] = compound: CC(=O)N1CCC[C@H]1C(=O)N[C@@H](CCC(N)=O)C(=O)N[C@@H](Cc1ccc(OP(=O)(O)O)cc1)C(=O)N[C@@H](CCC(N)=O)C(N)=O; test: as §1
# [7] = compound: CC(=O)N[C@@H](C)C(=O)N[C@H](C(=O)N[C@@H](CCC(=O)O)C(=O)N1CCC[C@H]1C(=O)N[C@@H](CCC(N)=O)C(=O)N[C@@H](Cc1ccc(OP(=O)(O)O)cc1)C(=O)N[C@@H](CCC(N)=O)C(=O)N1CCC[C@H]1C(=O)NCC(=O)N[C@@H](CCC(N)=O)C(=O)N[C@@H](CC(N)=O)C(=O)N[C@@H](CC(C)C)C(N)=O)[C@@H](C)O; test: as §1
# [8] = compound: CC(=O)N[C@@H](CCC(=O)O)C(=O)N1CCC[C@H]1C(=O)N[C@@H](CCC(N)=O)C(=O)N[C@@H](Cc1ccc(OP(=O)(O)O)cc1)C(=O)N[C@@H](CCC(N)=O)C(=O)N1CCC[C@H]1C(=O)NCC(=O)N[C@@H](CCC(N)=O)C(=O)N[C@@H](CC(N)=O)C(=O)N[C@@H](CC(C)C)C(N)=O; test: as §1
# [9] = compound: CC(=O)N[C@@H](CCC(N)=O)C(=O)N[C@@H](Cc1ccc(OP(=O)(O)O)cc1)C(=O)N[C@@H](CCC(N)=O)C(=O)N1CCC[C@@H]1C(N)=O; test: as §1
# [10] = compound: CC(=O)N[C@@H](CCC(N)=O)C(=O)N[C@@H](Cc1ccc(OP(=O)(O)O)cc1)C(=O)N[C@@H](CCC(N)=O)C(=O)N1CCC[C@H]1C(=O)NCC(=O)N[C@@H](CCC(N)=O)C(=O)N[C@@H](CC(N)=O)C(=O)N[C@@H](CC(C)C)C(N)=O; test: as §1
# [11] = compound: CC(=O)N[C@@H](Cc1ccc(OP(=O)(O)O)cc1)C(N)=O; test: as §1
# [12] = compound: O=[N+]([O-])c1ccc(OP(=O)(O)O)cc1; test: as §1
Molecule,Activity [1],k cat [2] [s⁻¹],also measured
CC(=O)N[C@@H](Cc1ccccc1)C(=O)N[C@H](C(=O)N[C@@H](C)C(=O)N[C@H](C(=O)N[C@@H](CCC(=O)O)C(=O)N1CCC[C@H]1C(=O)N[C@@H](CCC(N)=O)C(=O)N[C@@H](Cc1ccc(OP(=O)(O)O)cc1)C(=O)N[C@@H](CCC(N)=O)C(=O)N1CCC[C@H]1C(=O)NCC(=O)N[C@@H](CCC(N)=O)C(=O)N[C@@H](CC(N)=O)C(=O)N[C@@H](CC(C)C)C(N)=O)[C@@H](C)O)[C@@H](C)O (Ac-FTATEPQ[pY]QPGQNL-NH2),,,k cat [3]: 3.95 s⁻¹
CC(=O)N[C@@H](CCC(=O)O)C(=O)N1CCC[C@H]1C(=O)N[C@@H](CCC(N)=O)C(=O)N[C@@H](Cc1ccc(OP(=O)(O)O)cc1)C(=O)N[C@@H](CCC(N)=O)C(=O)N1CCC[C@H]1C(=O)NCC(=O)N[C@@H](CCC(N)=O)C(=O)N[C@@H](CC(N)=O)C(=O)N[C@@H](CC(C)C)C(N)=O (Ac-EPQ[pY]QPGQNL-NH2),,4.22,
NC(=O)[C@H](Cc1ccc(OP(=O)(O)CCl)cc1)NC(=O)OCc1ccccc1,inactive,,
CC(=O)N[C@@H](C)C(=O)N[C@H](C(=O)N[C@@H](CCC(=O)O)C(=O)N1CCC[C@H]1C(=O)N[C@@H](CCC(N)=O)C(=O)N[C@@H](Cc1ccc(OP(=O)(O)O)cc1)C(=O)N[C@@H](CCC(N)=O)C(=O)N1CCC[C@H]1C(=O)NCC(=O)N[C@@H](CCC(N)=O)C(=O)N[C@@H](CC(N)=O)C(=O)N[C@@H](CC(C)C)C(N)=O)[C@@H](C)O (Ac-ATEPQ[pY]QPGQNL-NH2),,4.93,
CC(=O)N[C@@H](CCC(N)=O)C(=O)N[C@@H](Cc1ccc(OP(=O)(O)O)cc1)C(=O)N[C@@H](CCC(N)=O)C(=O)N1CCC[C@H]1C(=O)NCC(=O)N[C@@H](CCC(N)=O)C(=O)N[C@@H](CC(N)=O)C(=O)N[C@@H](CC(C)C)C(N)=O (Ac-Q[pY]QPGQNL-NH2),,4.82,
NC(=O)CC[C@H](NC(=O)[C@H](Cc1ccc(O)cc1)NC(=O)[C@H](CCC(N)=O)NC(=O)OCc1ccccc1)C(N)=O (Cbz-Gln-Tyr-Gln-NH2),inactive,,
"Receptor-type tyrosine-protein phosphatase C (Homo sapiens), P08575 (protein) MTMYLWLKLLAFGFAFLDTEVFVTGQSPTPSPTGLTTAKMPSVPLSSDPLPTHTTAFSPASTFERENDFSETTTSLSPDNTSTQVSPDSLDNASAFNTTGVSSVQTPHLPTHADSQTPSAGTDTQTFSGSAANAKLNPTPGSNAISDVPGERSTASTFPTDPVSPLTTTLSLAHHSSAALPARTSNTTITANTSDAYLNASETTTLSPSGSAVISTTTIATTPSKPTCDEKYANITVDYLYNKETKLFTAKLNVNENVECGNNTCTNNEVHNLTECKNASVSISHNSCTAPDKTLILDVPPGVEKFQLHDCTQVEKADTTICLKWKNIETFTCDTQNITYRFQCGNMIFDNKEIKLENLEPEHEYKCDSEILYNNHKFTNASKIIKTDFGSPGEPQIIFCRSEAAHQGVITWNPPQRSFHNFTLCYIKETEKDCLNLDKNLIKYDLQNLKPYTKYVLSLHAYIIAKVQRNGSAAMCHFTTKSAPPSQVWNMTVSMTSDNSMHVKCRPPRDRNGPHERYHLEVEAGNTLVRNESHKNCDFRVKDLQYSTDYTFKAYFHNGDYPGEPFILHHSTSYNSKALIAFLAFLIIVTSIALLVVLYKIYDLHKKRSCNLDEQQELVERDDEKQLMNVEPIHADILLETYKRKIADEGRLFLAEFQSIPRVFSKFPIKEARKPFNQNKNRYVDILPYDYNRVELSEINGDAGSNYINASYIDGFKEPRKYIAAQGPRDETVDDFWRMIWEQKATVIVMVTRCEEGNRNKCAEYWPSMEEGTRAFGDVVVKINQHKRCPDYIIQKLNIVNKKEKATGREVTHIQFTSWPDHGVPEDPHLLLKLRRRVNAFSNFFSGPIVVHCSAGVGRTGTYIGIDAMLEGLEAENKVDVYGYVVKLRRQRCLMVQVEAQYILIHQALVEYNQFGETEVNLSELHPYLHNMKKRDPPSEPSPLEAEFQRLPSYRSWRTQHIGNQEENKSKNRNSNVIPYDYNRVPLKHELEMSKESEHDSDESSDDDSDSEEPSKYINASFIMSYWKPEVMIAAQGPLKETIGDFWQMIFQRKVKVIVMLTELKHGDQEICAQYWGEGKQTYGDIEVDLKDTDKSSTYTLRVFELRHSKRKDSRTVYQYQYTNWSVEQLPAEPKELISMIQVVKQKLPQKNSSEGNKHHKSTPLLIHCRDGSQQTGIFCALLNLLESAETEEVVDIFQVVKALRKARPGMVSTFEQYQFLYDVIASTYPAQNGQVKKNNHQEDKIEFDNEVDKVKQDANCVNPLGAPEKLPEAKEQAEGSEPTSGTEGPEHSVNGPASPALNQGS",,,Km [4]: 278 µM; Km [5]: 278 µM; Km [6]: 278 µM; Km [7]: 143 µM; Km [8]: 102 µM; Km [9]: 278 µM; Km [10]: 172 µM; Km [11]: 278 µM; Km [12]: 278 µM

# More lines, main results first:
Activity [1],k cat [2] [s⁻¹],Molecule,also measured
inactive,,NC(=O)[C@H](Cc1ccc(OC[C@H]2CO2)cc1)NC(=O)OCc1ccccc1,
,3.95,CC(=O)N[C@@H](CCC(N)=O)C(=O)N[C@@H](Cc1ccc(OP(=O)(O)O)cc1)C(=O)N[C@@H](CCC(N)=O)C(=O)N1CCC[C@@H]1C(N)=O,
inactive,,NC(=O)[C@H](Cc1ccc(O)cc1)NC(=O)OCc1ccccc1,
inactive,,NC(=O)CC[C@H](NC(=O)[C@H](Cc1ccc(OC[C@@H]2CO2)cc1)NC(=O)[C@H](CCC(N)=O)NC(=O)OCc1ccccc1)C(N)=O,
,3.95,CC(=O)N1CCC[C@H]1C(=O)N[C@@H](CCC(N)=O)C(=O)N[C@@H](Cc1ccc(OP(=O)(O)O)cc1)C(=O)N[C@@H](CCC(N)=O)C(=O)N1CCC[C@@H]1C(N)=O,
,3.95,CC(=O)N[C@@H](Cc1ccc(OP(=O)(O)O)cc1)C(N)=O,
,3.95,O=[N+]([O-])c1ccc(OP(=O)(O)O)cc1,
inactive,,NC(=O)[C@H](Cc1ccc(OC[C@@H]2CO2)cc1)NC(=O)OCc1ccccc1,
,3.95,CC(=O)N1CCC[C@H]1C(=O)N[C@@H](CCC(N)=O)C(=O)N[C@@H](Cc1ccc(OP(=O)(O)O)cc1)C(=O)N[C@@H](CCC(N)=O)C(N)=O (Ac-PQ[pY]Q-NH2),
inactive,,NC(=O)[C@H](Cc1ccc(OC(=O)CCl)cc1)NC(=O)OCc1ccccc1,
